Structures can show the parent of a compound that is named as a salt. Where two headings read alike, the source gives them in different places. Each block holds one molecule with its values, some of them ahead of it.
What was measured:
A375 malignant melanoma = test: Inhibition of cell proliferation (14C-thymidine incorporation), A375; type: cell-based, human
Method: (§1) The ability of a test compound to inhibit the proliferation of cell growth was determined by measuring incorporation of ^14C-labelled thymidine into newly synthesized DNA within the cells. This method was used on cell lines derived from carcinomas originating from several tissues such as HeLa cervical adenocarcinoma (American Type Culture Collection (ATCC), Virginia, Cat. #CCL-2), A375 malignant melanoma (ATCC CRL-1619), and HCT-116 colon carcinoma (CCL-247). In this way the effect of a compound on cell growth of cells with many different phenotypes can be determined. Cells were trypsinized and counted and 3000-8000 cells were added to each well of a 96-well CytoStar tissue culture treated scintillating microplate (Amersham #RPNQ0160) in complete medium in a volume of 100 μl. Cells were incubated for 24 hours in complete medium at 37° C. in an atmosphere containing 5% CO2.
(§2) Next, 1 μl of test compound in 100% DMSO was added to the wells of the plate. DMSO only was added to control wells. Cells were incubated for 24 more hours in complete medium at 37° C. in an atmosphere containing 5% CO2. Methyl ^14C-thymidine 56 mCi/mmol (NEN #NEC568 or Amersham #CFA532) was diluted in complete medium and 0.2 uCi/well was added to each well of the CytoStar plate in a volume of 20 ul. The plate was incubated for 24 hours at 37° C. plus 5% CO2 in drug plus ^14C-thymidine. The contents of the plate were discarded into a ^14C radioactive waste container by inverting the plate and the plate was washed twice with 200 μl PBS.
(§3) 200 μl of PBS was added to each well. The top of the plate was sealed with a transparent plate sealer and a white plate backing sealer (Packard #6005199) was applied to the bottom of the plate. The degree of methyl ^14C-thymidine incorporation was quantified on a Packard Top Count.

[1] = Standard Rat Pharmacokinetics (PK); type: in vivo; settings: for bioavailability: plasma; for Cmax: rat plasma
Method: The conversion of prodrug to active form was evaluated using a standard rat PK protocol. The following procedure may be followed.
Rats were dosed intravenously (IV) at the level of 1.5-3 mg/kg and by oral gavage (PO) at the level of 10-30 mg/kg with prodrug candidate. For each study, four rats were used for IV dosing and four rats were used for PO dosing. Prodrug was typically formulated for IV dosing as a solution in 10% W/V solutol in 5% dextrose in sterile water vehicle (D5W). Prodrug was typically formulated for oral dosing as a uniform suspension in 0.5% methylcellulose vehicle. Blood samples (0.5 mL) were collected into heparinized tubes post dose via orbital sinus puncture. For IV dosing, blood samples were collected at 5, 15 and 30 mins, 1, 2, 4, 6, 8, and 24 hrs after the dosing. For PO dosing, blood samples were collected at 30 mins, 1, 2, 4, 6, 8 and 24 hrs. Blood samples were centrifuged for cell removal, and precisely 200 μL of plasma supernatant was then transferred to a clean vial, placed on dry ice, and subsequently stored in a −70° C. freezer prior to analysis. Results were calculated by WinNonlin Pro version 3.1. Plasma levels were determined and the oral and intravenous area under the concentration vs. time curve (AUC) were compared to determine the % bioavailability (% F) by the following formula: Dose(IV)*AUC(oral)/Dose (oral)*AUC(IV).

HER2 = target: T1, HER2 (Homo sapiens, UniProt P04626); test: HER2 Kinase Screening Assay; type: biochemical; settings: 10 μM ATP; >10 or >100 = less than 50% inhibition at highest concentration tested
T1 construct: polyhistidine (N)
Method: The HER2 kinase assay was carried out as described above for the VEGF-R kinase assay except that the enzyme was replaced with a human epidermal growth factor receptor-2 (HER2) construct contains a polyhistidine tag at the N-terminus followed by 24 additional amino acids and begins at amino acid 676 (Accession #M11730) followed by the remainder of the HER2 cytoplasmic domain.
(§4) VEGF-R (vascular endothelial growth factor receptor-2) is a fusion protein containing a polyhistidine tag at the N-terminus followed by amino acids 786-1343 of the rat VEGF-R2 kinase domain (GenBank Accession #U93306). CDK1 (cyclin dependent kinase 1) was isolated from insect cells expressing both the human CDK1 catalytic subunit and its positive regulatory subunit cyclin B (New England Biolabs, Beverly, Mass., Cat. # 6020). CDK2 in complex with cyclin A is commercially available (Upstate Biotech, Lake Placid, N.Y.). The HER2 (human epidermal growth factor receptor-2) construct contains a polyhistidine tag at the N-terminus followed by 24 additional amino acids and begins at amino acid 676 followed by the remainder of the HER2 cytoplasmic domain.

CDK1:Cyclin-B = target: T2, CDK1:Cyclin-B (Homo sapiens, UniProt P06493); test: CDK1 Screening Assay (33P-ATP FlashPlate); type: biochemical; settings: 10 μM ATP; >10 or >100 = less than 50% inhibition at highest concentration tested
T2 construct: purchased New England Biolabs, Beverly, Mass; 6020; host or cells: insect cells
Method: A kinase reaction mixture was prepared containing 50 mM Tris-HCl pH=8, 10 mM MgCl2, 0.1 mM Na3PO4, 1 mM DTT, 10 μM ATP, 0.025 μM biotinylated histone-H1 peptide substrate and 0.2 μCuries per well ^33P-γ-ATP (2000-3000 Ci/mmol). 70 μL of the kinase reaction mixture was dispensed into each well of a streptavidin coated FlashPlate™ (Cat. # SMP103, NEN, Boston, Mass.). Then 1 μL of test compound stock in 100% DMSO was added to the wells resulting in a final concentration of 1% DMSO in the reaction with a 100 μl final reaction volume.
Next, CDK1:Cyclin-B protein was diluted in 50 mM Tris-HCl pH=8.0, 0.1% BSA at a concentration of 1 ng per μL and 30 μL (30 ng enzyme per test well) was added to each well to initiate the reaction. The reaction was incubated for one hour at 30° C. At the end of the 1 h incubation, the reaction was terminated by aspirating the mixture from the plate and washing the wells twice with PBS containing 100 mM EDTA. The histone-H1 biotinylated peptide substrate became immobilized on the Flashplate™ and the incorporation of ^33P-γ-ATP was measured by reading the plate on a scintillation counter. Inhibition of the enzymatic activity of CDK1 was measured by observing a reduced amount of ^33P-γ-ATP incorporated into the immobilized peptide.
as §4

[2] = system: HeLa cervical adenocarcinoma; test: Inhibition of cell proliferation (14C-thymidine incorporation), HeLa; type: cell-based
Method: as §1, §2, §3

[3] = rat, IV/PO 2/10 mg/kg, Dose(IV)*AUC(oral)/Dose(oral)*AUC(IV)
[4] = IV 3 mg/kg of prodrug, read-out: Prodrug Cmax (μM) IV
[5] = PO 30 mg/kg of prodrug, read-out: Prodrug Cmax (μM) PO
[6] = rat, IV/PO 3/30 mg/kg, Dose(IV)*AUC(oral)/Dose(oral)*AUC(IV)
[7] = IV 2 mg/kg of prodrug, read-out: Prodrug Cmax (μM) IV

T2 sequence (P06493 whole entry): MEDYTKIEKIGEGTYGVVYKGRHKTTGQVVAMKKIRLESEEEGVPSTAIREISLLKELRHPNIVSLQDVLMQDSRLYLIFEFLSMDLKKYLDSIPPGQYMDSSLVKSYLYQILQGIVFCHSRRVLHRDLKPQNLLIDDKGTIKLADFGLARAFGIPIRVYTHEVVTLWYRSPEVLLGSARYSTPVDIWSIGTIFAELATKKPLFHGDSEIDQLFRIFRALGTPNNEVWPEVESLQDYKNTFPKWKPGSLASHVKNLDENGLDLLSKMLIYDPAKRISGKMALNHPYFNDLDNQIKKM
T2 sequence (P14635 whole entry partner): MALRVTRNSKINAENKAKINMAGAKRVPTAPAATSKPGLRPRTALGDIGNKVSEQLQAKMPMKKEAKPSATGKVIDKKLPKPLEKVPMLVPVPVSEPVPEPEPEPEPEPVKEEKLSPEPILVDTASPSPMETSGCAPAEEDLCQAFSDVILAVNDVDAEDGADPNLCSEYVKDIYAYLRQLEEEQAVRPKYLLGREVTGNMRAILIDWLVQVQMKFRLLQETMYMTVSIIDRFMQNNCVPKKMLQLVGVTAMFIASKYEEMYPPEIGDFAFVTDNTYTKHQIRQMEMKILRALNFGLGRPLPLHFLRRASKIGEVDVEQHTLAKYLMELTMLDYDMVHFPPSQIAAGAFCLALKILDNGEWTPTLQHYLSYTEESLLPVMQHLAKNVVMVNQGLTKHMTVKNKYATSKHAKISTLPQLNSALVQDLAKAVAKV

Molecule: CN1CCN(CCC(=O)NS(=O)(=O)c2ccc(Nc3nc(N)n(C(=O)c4c(F)cccc4F)n3)cc2)CC1 [Compound 5, 4-[5-amino-1-(2,6-difluoro-benzoyl)-1H-[1,2,4]triazol-3-ylamino]-N-[3-(4-methyl-piperazin-1-yl)-propionyl]-benzenesulfonamide]
IC50 (A375 malignant melanoma; Homo sapiens, A-375): > 100 µM
bioavailability ([1]; rat, IV/PO 1.7/17 mg/kg, Dose(IV)*AUC(oral)/Dose(oral)*AUC(IV)): 0%
Cmax ([1]; IV 1.7 mg/kg of prodrug, read-out: Prodrug Cmax (μM) IV): 23.2 µM
IC50 (HER2): ≥ 10 µM
IC50 (CDK1:Cyclin-B): 1.34 µM
IC50 ([2]; Homo sapiens): > 100 µM

Molecule: 4-[5-amino-1-(2,6-difluoro-benzoyl)-1H-[1,2,4]triazol-3-ylamino]-N-propionyl-benzenesulfonamide [Compound 20]
IC50 (A375 malignant melanoma): > 10 µM
Cmax [1, 4]: 33.5 µM
Cmax [1, 5]: 0.02 µM
% F [1, 6]: 0.34%
IC50 (HER2): ≥ 10 µM
IC50 (CDK1:Cyclin-B): 1.82 µM
IC50 [2]: 58.8 µM

Molecule: Nc1nc(Nc2ccc(S(=O)(=O)NC(=O)CCC(=O)O)cc2)nn1C(=O)c1c(F)cccc1F [Compound 1, 4-{4-[5-amino-1-(2,6-difluoro-benzoyl)-1H-[1,2,4]triazol-3-ylamino]-benzenesulfonylamino}-4-oxo-butyric acid]
IC50 (A375 malignant melanoma; Homo sapiens, A-375): 20.3 µM
bioavailability [1, 6]: 1%
Cmax [1, 4]: 47 µM
Cmax [1, 5]: 0.36 µM
IC50 (HER2): ≥ 10 µM
IC50 (CDK1:Cyclin-B): 0.49 µM
IC50 ([2]; Homo sapiens): 31.9 µM

Molecule: CCCC(=O)NS(=O)(=O)c1ccc(Nc2nc(N)n(C(=O)c3c(F)cccc3F)n2)cc1 [Compound 19, 4-[5-amino-1-(2,6-difluoro-benzoyl)-1H-[1,2,4]triazol-3-ylamino]-N-butyryl-benzenesulfonamide]
IC50 (A375 malignant melanoma; Homo sapiens, A-375): 24.1 µM
bioavailability [1, 6]: 0.41%
Cmax [1, 4]: 127 µM
Cmax [1, 5]: 0.27 µM
IC50 (HER2): 5 µM
IC50 (CDK1:Cyclin-B): 0.28 µM
IC50 ([2]; Homo sapiens): 6.89 µM

Molecule: CN(C)CC(=O)NS(=O)(=O)c1ccc(Nc2nc(N)n(C(=O)c3c(F)cccc3F)n2)cc1 [Compound 6, 4-[5-amino-1-(2,6-difluoro-benzoyl)-1H-[1,2,4]triazol-3-ylamino]-N-(2-dimethylamino-acetyl)-benzenesulfonamide]
IC50 (A375 malignant melanoma; Homo sapiens, A-375): > 100 µM
bioavailability [1, 6]: 0%
Cmax [1, 4]: 25.2 µM
IC50 (HER2): ≥ 10 µM
IC50 (CDK1:Cyclin-B): 2.13 µM
IC50 ([2]; Homo sapiens): > 10 µM

Now from value to molecule:

IC50 (A375 malignant melanoma; Homo sapiens, A-375): > 10 µM
bioavailability [1, 3]: 0%
IC50 (HER2): > 100 µM
IC50 (CDK1:Cyclin-B): 4.69 µM
IC50 ([2]; Homo sapiens): > 10 µM
Molecule: COCCOCCOCC(=O)NS(=O)(=O)c1ccc(Nc2nc(N)n(C(=O)c3c(F)cccc3F)n2)cc1 [Compound 9, 4-[5-amino-1-(2,6-difluoro-benzoyl)-1H-[1,2,4]triazol-3-ylamino]-N-{2-[2-(2-methoxy-ethoxy)-ethoxy]-acetyl}-benzenesulfonamide]

IC50 (A375 malignant melanoma; Homo sapiens, A-375): > 100 µM
bioavailability [1, 6]: 0.4%
Cmax [1, 4]: 134 µM
Cmax [1, 5]: 0.41 µM
IC50 (HER2): 5 µM
IC50 (CDK1:Cyclin-B): 1.93 µM
IC50 ([2]; Homo sapiens): 81.2 µM
Molecule: CCCCC(=O)NS(=O)(=O)c1ccc(Nc2nc(N)n(C(=O)c3c(F)cccc3F)n2)cc1 [Compound 18, 4-[5-amino-1-(2,6-difluoro-benzoyl)-1H-[1,2,4]triazol-3-ylamino]-N-pentanoyl-benzenesulfonamide]

IC50 (A375 malignant melanoma; Homo sapiens, A-375): 26.8 µM
bioavailability [1, 3]: 0%
Cmax [1, 7]: 1.8 µM
IC50 (HER2): 50 µM
IC50 (CDK1:Cyclin-B): 0.23 µM
IC50 ([2]; Homo sapiens): 10.2 µM
Molecule: Nc1nc(Nc2ccc(S(=O)(=O)NC(=O)[C@@H]3CCCN3)cc2)nn1C(=O)c1c(F)cccc1F [Compound 16, 4-[5-amino-1-(2,6-difluoro-benzoyl)-1H-[1,2,4]triazol-3-ylamino]-N—((S)-pyrrolidine-2-carbonyl)-benzenesulfonamide]

IC50 (A375 malignant melanoma; Homo sapiens, A-375): > 100 µM
bioavailability [1, 6]: 0%
Cmax [1, 4]: 20.5 µM
IC50 (HER2): > 100 µM
IC50 (CDK1:Cyclin-B): 1.55 µM
IC50 ([2]; Homo sapiens): 20.9 µM
Molecule: Nc1nc(Nc2ccc(S(=O)(=O)NC(=O)CCN3CCOCC3)cc2)nn1C(=O)c1c(F)cccc1F [Compound 7, 4-[5-amino-1-(2,6-difluoro-benzoyl)-1H-[1,2,4]triazol-3-ylamino]-N-(3-morpholin-4-yl-propionyl)-benzenesulfonamide]

IC50 (A375 malignant melanoma; Homo sapiens, A-375): > 10 µM
bioavailability [1, 6]: 0.17%
Cmax [1, 4]: 72.2 µM
Cmax [1, 5]: 0.19 µM
IC50 (HER2): 1.23 µM
IC50 (CDK1:Cyclin-B): 0.47 µM
IC50 ([2]; Homo sapiens): 60.2 µM
Molecule: CCOC(=O)CCC(=O)NS(=O)(=O)c1ccc(Nc2nc(N)n(C(=O)c3c(F)cccc3F)n2)cc1 [Compound 8, 4-{4-[5-amino-1-(2,6-difluoro-benzoyl)-1H-[1,2,4]triazol-3-ylamino]-benzenesulfonylamino}-4-oxo-butyric acid ethyl ester]

IC50 (A375 malignant melanoma; Homo sapiens, A-375): > 10 µM
bioavailability [1, 3]: 0%
Cmax ([1]; PO 10 mg/kg of prodrug, read-out: Prodrug Cmax (μM) PO): 0.04 µM
IC50 (HER2): > 100 µM
IC50 (CDK1:Cyclin-B): 0.76 µM
IC50 ([2]; Homo sapiens): 30.8 µM
Molecule: Nc1nc(Nc2ccc(S(=O)(=O)NC(=O)COCCOCCOCC(=O)O)cc2)nn1C(=O)c1c(F)cccc1F [Compound 12, {2-[2-(2-{4-[5-amino-1-(2,6-difluoro-benzoyl)-1H-[1,2,4]triazol-3-ylamino]-benzenesulfonylamino}-2-oxo-ethoxy)-ethoxy]-ethoxy}-acetic acid.2TFA salt]

IC50 (A375 malignant melanoma; Homo sapiens, A-375): > 100 µM
bioavailability [1, 3]: 0%
Cmax [1, 7]: 67.3 µM
IC50 (HER2): > 100 µM
IC50 (CDK1:Cyclin-B): 2.55 µM
IC50 ([2]; Homo sapiens): > 100 µM
Molecule: COCCOCCOCC(=O)Nc1nc(Nc2ccc(S(N)(=O)=O)cc2)nn1C(=O)c1c(F)cccc1F [Compound 10, N-[2-(2,6-difluoro-benzoyl)-5-(4-sulfamoyl-phenylamino)-2H-[1,2,4]triazol-3-yl]-2-[2-(2-methoxy-ethoxy)-ethoxy]-acetamide]

From patent publication US7888380B2, “1,2,4-Triazolylaminoaryl (heteroaryl) sulfonamide derivatives” (Janssen Pharmaceutica, N.V., priority 2004, dated 2011)
